Key:
[1] = tested on: Subjects suffering from photophobia due to a migraine; experiment: Treatment of photophobia due to a migraine, placebo-controlled subject study; format: in vivo; settings: 200 or 400 milligrams of ibuprofen vs placebo; approximately 650 subjects; at time of two hours or longer
Source text: FIG. 1 depicts the percentage of subjects with reduced photophobia over time after treatment with ibuprofen. Subjects suffering from photophobia due to a migraine were either given a placebo or treated with 200 or 400 milligrams of ibuprofen. Approximately 650 subjects were in the study. Some subjects were given placebos, while others were given either 200 or 400 milligrams of ibuprofen.

[2] = tested on: Subjects suffering from phonophobia due to a migraine; experiment: Treatment of phonophobia due to a migraine, placebo-controlled subject study; format: in vivo; settings: 200 or 400 milligrams of ibuprofen in tablet form vs placebo; at time of two hours or longer
Source text: FIG. 2 depicts the percentage of subjects with reduced phonophobia over time over time after treatment with ibuprofen. Subjects suffering from phonophobia due to a migraine were either given a placebo or treated with 200 or 400 milligrams of ibuprofen in tablet form.

SMILES: CC(C)Cc1ccc(C(C)C(=O)O)cc1 (centres unmarked) [ibuprofen]
- relief of photophobia (percentage of subjects with reduced photophobia over time, FIG. 1) [1]: effective in relieving photophobia
- relief of phonophobia (percentage of subjects with reduced phonophobia over time, FIG. 2); text prints photophobia [2]: effective in relieving photophobia

Reference: patent US20030191188A1, “Method for treating migraine symptoms with ibuprofen and salts thereof” (priority 1999, published 2003)
